Values quoted from earlier work, collected in US9229014B2, “Methods of assessing the need for and the effectiveness of therapy with antioxidants” (priority 2004, dated 2016).
Each block holds one compound with its values, some of them ahead of it.

Tests used:
heart and liver tissues = conditions: ADR-induced rats; for serum and tissue levels of LDH, aminotransferases and ALP: comparison with control group
[1] = lipid-soluble antioxidant

serum and tissue levels of LDH, aminotransferases and ALP (heart and liver tissues): significantly elevated
Compound: COc1cccc2c1C(=O)c1c(O)c3c(c(O)c1C2=O)C[C@@](O)(C(=O)CO)C[C@@H]3O[C@H]1C[C@H](N)[C@H](O)[C@H](C)O1 [ADR, adriamycin]

Compound: CC1=C(/C=C/C(C)=C/C=C/C(C)=C/C=C/C=C(C)/C=C/C=C(C)/C=C/C2=C(C)C[C@@H](O)CC2(C)C)C(C)(C)CCC1 [Beta-Cryptoxanthin]
antioxidant activity relative to vitamin E [1]: 3.1 times higher than vitamin E

Compound: N.N.O=C([O-])C1(C(=O)[O-])CCC1.[Pt+2] [Carboplatin]
reduced to oxidized glutathione ratio, antioxidant enzyme activities (inferior colliculus; 4 days after treatment): significantly depressed | nitric oxide and lipid peroxidation, xanthine oxidase, and manganese superoxide dismutase activities (inferior colliculus; not in the cerebellum): significantly increased

Compound: CC1=C[C@H](O)CC(C)(C)[C@H]1/C=C/C(C)=C/C=C/C(C)=C/C=C/C=C(C)/C=C/C=C(C)/C=C/C1=C(C)C[C@@H](O)CC1(C)C [Lutein]
antioxidant activity relative to vitamin E [1]: 2.3 times higher than vitamin E

Compound: CC(C)=CCC/C(C)=C/C=C/C(C)=C/C=C/C(C)=C/C=C/C=C(C)/C=C/C=C(C)/C=C/C=C(\C)CCC=C(C)C [Lycopene]
antioxidant activity relative to vitamin E [1]: 2.8 times higher than vitamin E

Compound: CC1=C(/C=C/C(C)=C/C=C/C(C)=C/C=C/C=C(C)/C=C/C=C(C)/C=C/C2=C(C)C[C@@H](O)CC2(C)C)C(C)(C)C[C@H](O)C1 [Zeaxanthin]
antioxidant activity relative to vitamin E [1]: 2.8 times higher than vitamin E

serum and tissue levels of LDH, aminotransferases and ALP (heart and liver tissues): prevented the rise
Compound: low molecular weight heparin [LMWH]
cardiac and hepatic lipid peroxidation induced by ADR (heart and liver tissues): decreased | rise in serum CPK (cardiotoxicity) (heart and liver tissues; LMWH treatment): attenuated
